Test results reported in patent publication US20260069571A1, “DDR1 AND DDR2 INHIBITORS FOR THE TREATEMENT OF CANCER AND FIBROTIC DISEASES” (REDX PHARMA PLC, priority 2021, published 2026).

Columns and labels:
Recombinant human DDR1 = Recombinant human DDR1 (Homo sapiens (Human), UniProt Q08345); assay: LanthaScreen Eu Kinase Binding Assay, DDR1; details: DDR1 2.5 nM (aa440-876, GST tag), Kinase Tracer 178 5 nM; for IC50: read-out: DDR1 pIC50 (converted)
Outline: (§1)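 GST-tagged kinase domains (DDR1 aa440-876 at 2.5 nM; DDR2 aa427-855 at 1.75 nM) were preincubated 30 min at room temperature with compound in HEPES pH 7.3 buffer. Then 1 nM Eu-anti-GST plus Tracer 178 (5 nM DDR1, 10 nM DDR2) were added; after 60 min, TR-FRET gave IC50 by four-parameter fit, ≥2 replicates.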

Recombinant human DDR2 = Recombinant human DDR2 (Homo sapiens (Human), UniProt Q16832); assay: LanthaScreen Eu Kinase Binding Assay, DDR2; details: DDR2 1.75 nM (aa427-855, GST tag), Kinase Tracer 178 10 nM; for IC50: read-out: DDR2 pIC50 (converted)
Sequence of Recombinant human DDR2 (Q16832 427-855): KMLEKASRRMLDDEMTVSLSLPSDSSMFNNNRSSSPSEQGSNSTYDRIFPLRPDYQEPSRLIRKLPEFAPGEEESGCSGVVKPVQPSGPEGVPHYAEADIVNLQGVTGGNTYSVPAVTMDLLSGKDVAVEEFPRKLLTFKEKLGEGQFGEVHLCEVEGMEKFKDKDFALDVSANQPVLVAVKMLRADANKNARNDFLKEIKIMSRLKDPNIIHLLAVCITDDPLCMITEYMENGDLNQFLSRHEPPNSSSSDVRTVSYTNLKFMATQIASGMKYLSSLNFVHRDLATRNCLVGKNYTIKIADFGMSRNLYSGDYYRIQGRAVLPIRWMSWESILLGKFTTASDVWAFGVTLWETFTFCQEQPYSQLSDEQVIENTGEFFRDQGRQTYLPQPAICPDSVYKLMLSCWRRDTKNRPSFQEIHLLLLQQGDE
Outline: as §1

Sequence of Recombinant human DDR1 (Q08345 other isoform, or with tags, fused parts or gaps): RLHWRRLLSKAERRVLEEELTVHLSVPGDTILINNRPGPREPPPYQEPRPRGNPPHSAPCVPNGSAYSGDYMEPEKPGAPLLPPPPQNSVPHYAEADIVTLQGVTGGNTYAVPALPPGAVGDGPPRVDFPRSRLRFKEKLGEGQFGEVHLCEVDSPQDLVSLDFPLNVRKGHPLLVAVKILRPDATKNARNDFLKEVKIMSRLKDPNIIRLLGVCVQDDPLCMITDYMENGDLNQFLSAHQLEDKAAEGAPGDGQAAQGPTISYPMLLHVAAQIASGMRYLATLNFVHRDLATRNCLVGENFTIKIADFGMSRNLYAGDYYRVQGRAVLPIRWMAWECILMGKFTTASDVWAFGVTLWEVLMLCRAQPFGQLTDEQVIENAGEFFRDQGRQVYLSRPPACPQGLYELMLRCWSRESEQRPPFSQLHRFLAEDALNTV

Row | Structure (SMILES) | IC50 (Recombinant human DDR1) | IC50 (Recombinant human DDR2) | DDR1 pIC50 (Recombinant human DDR1) | DDR2 pIC50 (Recombinant human DDR2)
1 | N#Cc1n[nH]c2ccc(Nc3cccc4c3C(=O)N(CC(=O)N3CCC[C@H]3C(F)(F)F)C4)cc12 [Example 82, 5-[[3-oxo-2-[2-oxo-2-[(2S)-(trifluoromethyl)pyrrolidin-1-yl]ethyl]isoindolin-4-yl]amino]-1H-indazole-3-carbonitrile] | 10 to 100 nM | ≥ 1000 nM |  | 
2 | O=C1c2c(cccc2Nc2ccc3[nH]nc(F)c3c2)CN1CC(=O)N1CCC[C@H]1C(F)(F)F [Example 83, 7-[(3-fluoro-1H-indazol-5-yl)amino]-2-[2-oxo-2-[(2S)-(trifluoromethyl)pyrrolidin-1-yl]ethyl]isoindolin-1-one] | 10 to 100 nM | 10 to 100 nM |  | 
3 | O=C1c2c(cccc2Nc2ccc3[nH]ncc3n2)CN1CC(=O)N1CCC[C@H]1C(F)(F)F [Example 84, 2-[2-oxo-2-[(2S)-(trifluoromethyl)pyrrolidin-1-yl]ethyl]-7-(1H-pyrazolo[4,3-b]pyridin-5-ylamino)isoindolin-1-one] | 10 to 100 nM | 100 to 1000 nM |  | 
4 | CN(c1ccc2[nH]nc(C#N)c2c1)c1cccc2c1C(=O)N(CC(=O)N1CCC[C@H]1C(F)(F)F)C2 [Example 86, 5-[methyl-[3-oxo-2-[2-oxo-2-[(2S)-(trifluoromethyl)pyrrolidin-1-yl]ethyl]isoindolin-4-yl]amino]-1H-indazole-3-carbonitrile] | 10 to 100 nM | 10 to 100 nM |  | 
5 | C[C@H](NC(=O)CN1Cc2cccc(N(C)c3cnc4[nH]ncc4c3)c2C1=O)C(F)(F)F [Example 89, 2-[7-[methyl(1H-pyrazolo[3,4-b]pyridin-5-yl)amino]-1-oxo-isoindolin-2-yl]-N-[(1S)-2,2,2-trifluoro-1-methyl-ethyl]acetamide] | 10 to 100 nM | 10 to 100 nM |  | 
6 | CN(c1cnc2[nH]ncc2c1)c1cccc2c1C(=O)N(CC(=O)NCC(F)(F)F)C2 [Example 90, 2-[7-[methyl(1H-pyrazolo[3,4-b]pyridin-5-yl)amino]-1-oxo-isoindolin-2-yl]-N-(2,2,2-trifluoroethyl)acetamide] | 10 to 100 nM | 100 to 1000 nM |  | 
7 | CN(c1ccc2[nH]nc(F)c2c1)c1cccc2c1C(=O)N(CC(=O)N1CCC[C@H]1C(F)(F)F)C2 [Example 92, 7-[(3-fluoro-1H-indazol-5-yl)-methyl-amino]-2-[2-oxo-2-[(2S)-(trifluoromethyl)pyrrolidin-1-yl]ethyl]isoindolin-1-one] | 10 to 100 nM | 100 to 1000 nM |  | 
8 | Cn1ncc2cc(Nc3cccc4c3C(=O)N(CC(=O)NCC(F)(F)F)C4)cc(F)c21 [Example 93, 2-[7-[(7-fluoro-1-methyl-indazol-5-yl)amino]-1-oxo-isoindolin-2-yl]-N-(2,2,2-trifluoroethyl)acetamide] |  | 10 to 100 nM | A (pIC50>8) | 
9 | CN(c1ccc2c(cnn2C)c1)c1cccc2c1C(=O)N(CC(=O)N1CCC[C@H]1C(F)F)C2 [Example 95, 7-[methyl-(1-methylindazol-5-yl)amino]-2-[2-oxo-2-[(2S)-(difluoromethyl)pyrrolidin-1-yl]ethyl]isoindolin-1-one] | 10 to 100 nM | 10 to 100 nM |  | 
10 | Cn1ncc2cc(Nc3cccc4c3C(=O)N(CC(=O)Nc3cncc(C(F)(F)F)c3)C4)cnc21 [Example 99, 2-[7-[(1-methylpyrazolo[3,4-b]pyridin-5-yl)amino]-1-oxo-isoindolin-2-yl]-N-[5-(trifluoromethyl)-3-pyridyl]acetamide] | 10 to 100 nM | 10 to 100 nM |  | 
11 | Cc1nn(C)c2ncc(Nc3cccc4c3C(=O)N(CC(=O)NCC(F)(F)F)C4)cc12 [Example 101, 2-[7-[(1,3-dimethylpyrazolo[3,4-b]pyridin-5-yl)amino]-1-oxo-isoindolin-2-yl]-N-(2,2,2-trifluoroethyl)acetamide] |  |  | D (pIC50≤6) | D (pIC50≤6)

Continued, values first:

Row | IC50 (Recombinant human DDR1) | IC50 (Recombinant human DDR2) | DDR1 pIC50 (Recombinant human DDR1) | DDR2 pIC50 (Recombinant human DDR2) | Structure (SMILES)
12 | 10 to 100 nM | 10 to 100 nM |  |  | Cn1ncc2nc(Nc3cccc4c3C(=O)N(CC(=O)N3CCC[C@H]3C(F)(F)F)C4)ccc21 [Example 85, 7-[(1-methylpyrazolo[4,3-b]pyridin-5-yl)amino]-2-[2-oxo-2-[(2S)-(trifluoromethyl)pyrrolidin-1-yl]ethyl]isoindolin-1-one]
13 | 10 to 100 nM | 10 to 100 nM |  |  | CN(c1cnc2[nH]ncc2c1)c1cccc2c1C(=O)N(CC(=O)N1CCC[C@H]1C(F)(F)F)C2 [Example 88, 7-[methyl(1H-pyrazolo[3,4-b]pyridin-5-yl)amino]-2-[2-oxo-2-[(2S)-(trifluoromethyl)pyrrolidin-1-yl]ethyl]isoindolin-1-one]
14 |  |  | A (pIC50>8) | A (pIC50>8) | Cn1ncc2cc(Nc3cccc4c3C(=O)N(CC(=O)N3CCC[C@H]3C(F)(F)F)C4)cc(F)c21 [Example 96, 7-[(7-fluoro-1-methyl-indazol-5-yl)amino]-2-[2-oxo-2-[(2S)-(trifluoromethyl)pyrrolidin-1-yl]ethyl]isoindolin-1-one]
15 | 10 to 100 nM | 100 to 1000 nM |  |  | Cn1ncc2cc(Nc3nccc4c3C(=O)N(CC(=O)N3CCC[C@H]3C(F)(F)F)C4)ccc21 [Example 97, 4-[(1-methylindazol-5-yl)amino]-2-[2-oxo-2-[(2S)-(trifluoromethyl)pyrrolidin-1-yl]ethyl]-1H-pyrrolo[3,4-c]pyridin-3-one]
16 | 10 to 100 nM | 100 to 1000 nM |  |  | Cc1nn(C)c2ncc(Nc3cccc4c3C(=O)N(CC(=O)N3CCC[C@H]3C(F)(F)F)C4)cc12 [Example 102, 7-[(1,3-dimethylpyrazolo[3,4-b]pyridin-5-yl)amino]-2-[2-oxo-2-[(2S)-(trifluoromethyl)pyrrolidin-1-yl]ethyl]isoindolin-1-one]
